Assays:
[1] = system: rat myocardial infarct model; assay: Mortality / survival in rat myocardial infarct model of heart failure; type: in vivo, rats
Description: (§1) In another study, a similar rat myocardial infarct model as above was used in order to assess the therapeutic potential of MA in heart failure.
(§2) Methods: From day 14 after surgery (LAD occlusion), rats received frusemide. On day 42, rats were randomized to receive 26 weeks treatment with placebo (PL: n=38), ramipril (n=38, 1 mg/kg/d), the standard MA formulation (MA-I: n=37) or a new nanocristal MA formulation (MA-II: n=40, both 100 mg/kg/d) until sacrifice, Cardiac function was assessed using echocardiography. Additionally, body composition was analyzed boy NMR-scanning, and in a subgroup cardiac function was assessed by MRI scanning and invasive hemodynamics.

[2] = system: lung of infarction surgery rats; assay: Histopathology of the lungs in rat infarct model; type: in vivo, Male Wistar-rats
Description: (§3) An animal study was carried out, wherein a ligation of the left coronary artery was performed in 140 animals. For control 20 animals were operated without coronary ligature (sham-surgery). Two weeks after surgery, therapy was started. Therefore, the animals were treated with a diuretic (furosemide, in average 10 per kg in drinking water). After six weeks double-blind randomised therapy with either placebo, old or new megestrol acetate (from day 42 on using gavage, 100 mg per kg) or ACE-inhibitor (Ramipril®, 1 mg per kg per day) was started. The infarct groups consisted of 38 animal each for Ramipril® and placebo, 37 for MA-1 and 40 for MA-II, as well as 5 animals per sham group. During the therapy animals were weighed twice a week. On day 224 after surgery animals were sacrificed and the lung was analyzed regarding weight and histopathology.
(§4) The animals underwent surgical treatment at a weight of about 210-220 g. In order to produce a heart insufficiency the inventors performed the surgical treatment in accordance with an infarction model that was already used in several prior studies. The heart infarction is produced according to a slightly modified method described by Selye et al. [Selye H, Bajusz E, Grassos S, Mendel P. Simple techniques for the surgical occlusion of coronary vessels in the rat. Angiology 1960; 11: 398-407] by ligation of the LAD.
(§5) Each rat was anaesthetised by i.p. chloralhydrate (Merck, Darmstadt, Germany) and was subsequently incubated with a PE-catheter (1.2 mm diameter) and respirated using a Rodent-respirator V5K6 (NarcoBio Systems, Houston, Tex., USA). During the whole operation an ECG was performed as control. The thorax was opened, the heart was prepared and a ligature using Ethibond-suture material 7/0 (Ethicon GmbH Norderstedt, Germany) was made in position of the left coronary artery (LAD). Since the coronary arteries during this process can not be viewed by the naked eye, the orientation occurred anatomically based on the position of the heart and the visible coronary veins. The success of the infarction could be visually verified based on the occurring paleness, cyanosis and mobility distortion. Subsequently, the thorax was closed. The respiration was ended, once a stable ECG was reached. 20 rats were used as control animals and were surgically treated in the same manner as the infarction animals. No coronary ligature was introduced in these animals (sham-surgery).
After the surgery, the animals were controlled and the weight was analysed twice a week during the whole study. From day 14 on, the animals received furosemide, accompanied from day 42 on with either placebo, ACE-inhibitor, MA-I or MA-TI. On day […] post-surgery the animals were randomised and segregated into the respective groups. During therapy animals were weighted twice a week and on day 224 post-surgery animals were sacrificed to analyze organs.
MA-I, MA-II, ACE-inhibitor (Ramipril®) or control substances were administered to the animals via gavage. Depending on the time of surgery, the animals were gavaged stating from week six after the in infarction surgery once a day, whereby the amount of gavage was adjusted to the weight (100 mg MA-I/kg body weight per day, 1 ml solution contains 40 mg MA-I or MA-II or placebo, respectively).
In the 32st week post-surgery, the surviving animals were anaesthetised using chloralhydrate i.p. […] body weight (Sigma-Aldrich Chemie GmbH, Deisenhofen, Germany). Following the preparation of the subscapular brown fatty tissue, lapratomisation was performed and blood was drawn from the aorta abdominalis into EDTA-flushed 10 ml syringes (Roth, Karlsruhe, Germany) and added to pre-chilled 12 ml-tubes (Sarstedt, Nümbrecht, Germany). The following parts were removed completely or partially: lung, heart, liver, kidneys, renal glands, inguinal fatty tissue, epididymal fatty tissue, gastrocnemius, and brain. […]

[3] = Weight determinations in rat infarct model of chronic heart insufficiency; type: in vivo, Male Wistar-rats; conditions: day 224 after surgery
Description: as §3
Male Wistar-rats (Dimed GmbH, Schönwalde, Germany) were held in an environment controlled animal facility having a constant temperature of 23° C. in a 12 hour day-night-cycle.
as §4
as §5, with “The respiration was ended, once a stable ECG was reached. 20 rats were used as control animals and were surgically treated in the same manner as the infarction animals. No coronary ligature was introduced in these animals (sham-surgery).” left out
(§6) After the surgery, the animals were controlled and the weight was analysed twice a week during the whole study. […]
During the progression of both studies; the animals were weight-determined twice a week, starting from the date of surgery (laboratory balance model CS2000. Ohaus Corporation, Pine Brook, N.J., USA). The results were calculated corresponding to the post-surgical day of the respective animal. […]

[4] = system: lung of infarction surgery rats; assay: Lung wet weight and amount of liquid in the lung in rat infarct model; type: in vivo, Male Wistar-rats
Description: as §3
The animals underwent surgical treatment at a weight of about 210-220 g. In order to produce a heart insufficiency the inventors performed the surgical treatment in accordance with an infarction model that was already used in several prior studies. […]
as §6

[5] = system: rat myocardial infarct model; assay: Cardiac function (echocardiography) in rat myocardial infarct model; type: in vivo, rats; conditions: 26 weeks treatment
Description: as §1, §2

[6] = Body weight, body composition (NMR-scanning) and tibia length in rat myocardial infarct model; type: in vivo, rats; conditions: 26 weeks treatment
Description: as §1, §2

[7] = infarct animals, around the great respiratory tracts, day 224
[8] = infarct animals, great respiratory tracts, day 224

## 17-α-acetoxy-6-methylpregna-4,6diene-3,20-dione [Megestrol acetate]
[1]; in comparison to placebo
  survival in infarction surgery rats: significantly improved the survival
[2]; infarct rats, vs placebo and Ramipril groups
  inflammation and mucus goblet cells of the lung (histopathology, in words): a reduction in the number of mucus goblet cells and a reduced inflammation of the lung

## CCOC(=O)[C@H](CCc1ccccc1)N[C@@H](C)C(=O)N1[C@H](C(=O)O)C[C@@H]2CCC[C@@H]21 [Ramipril]
[1]; 26 weeks treatment from day 42, MA 100 mg/kg/d, ramipril 1 mg/kg/d
  Mortality: 13%
[3]; infarct animals
  Weight of animals normalised to tibia length at the end of the study (mean): 133.2 g/cm tibia
[3]; infarct animals, gavage from day 42, MA 100 mg/kg/d, ramipril 1 mg/kg/d
  Weight of animals at the end of the study (mean): 575.0 g
[3]; sham-surgery animals
  Weight of animals at the end of the study (mean): 567.2 g
  Weight of animals normalised to tibia length at the end of the study (mean): 135.0 g/cm tibia
[4]
  average weight of the liquid in the lung: 2396 mg
  average wet weight of the lung: 3103 ± 281 mg
[5]
  CO/BW: 178 ± 8^$ ml/min/kg
  EF: 40 ± 2%
[2]; [7]
  Inflammation: number of animals graded little: 1
  Inflammation: number of animals graded medium: 2
  Inflammation: number of animals graded strong: 2
  Inflammation: number of animals graded very strong: 18
[2]; [8]
  Mucus goblet cells: number of animals graded medium: 7
  Mucus goblet cells: number of animals graded strong: 6
  Mucus goblet cells: number of animals graded very strong: 10
[2]; infarct animals, lung, day 224
  Emphysema: number of animals graded little: 3
  Emphysema: number of animals graded medium: 6
  Emphysema: number of animals graded none: 8
  Emphysema: number of animals graded strong: 4
  Emphysema: number of animals graded very strong: 2
  Fibrosis: number of animals graded little: 5
  Fibrosis: number of animals graded medium: 4
  Fibrosis: number of animals graded none: 12
  Fibrosis: number of animals graded strong: 2
[6]; MA 100 mg/kg/d, ramipril 1 mg/kg/d, in g
  Body weight, end of study: 575 ± 8
[6]; NMR-scanning
  Fat/tibia: 45.3 ± 5.9 g/cm
  Lean/tibia: 83.2 ± 2.5 g/cm
[6]; retarded growth
  tibia length: 4.3 cm

Reference: patent US20080269179A1, “Use of Megestrol Acetate for the Treatment of Obstructive Pulmonary Diseases” (priority 2005, published 2008)
